The results in this text go back to PMC10444021, “Design and synthesis of new spirooxindole candidates and their selenium nanoparticles as potential dual Topo I/II inhibitors, DNA intercalators, and apoptotic inducers” (Journal of Enzyme Inhibition and Medicinal Chemistry, 2023).

One series deals with HepG2. Put plainly: MTT cytotoxicity, HepG2. The format is cell-based. Conditions: Homo sapiens, mean ± SD. On the procedure:
(§1) The cytotoxic activities of the constructed members were assessed via the reported MTT method[49–52] (Supporting information).
(§2) The cytotoxic screening was performed using the MTT assay. […] Besides, the HCT-116 one was sensitive to only two samples, while the MCF7 was sensitive to one sample only. Two standard cytotoxic drugs: Dox and 5-fluorouracil (5-FU) were also applied on the same used cancer cell lines as references.

The next series deals with Caco-2. Put plainly: MTT cytotoxicity, Caco-2. The format is cell-based. Conditions: Homo sapiens, mean ± SD. On the procedure:
as §1, §2

In the next series the target is T1, Topo I (Homo sapiens, UniProt P11387).
T1 sequence (P11387 1-765): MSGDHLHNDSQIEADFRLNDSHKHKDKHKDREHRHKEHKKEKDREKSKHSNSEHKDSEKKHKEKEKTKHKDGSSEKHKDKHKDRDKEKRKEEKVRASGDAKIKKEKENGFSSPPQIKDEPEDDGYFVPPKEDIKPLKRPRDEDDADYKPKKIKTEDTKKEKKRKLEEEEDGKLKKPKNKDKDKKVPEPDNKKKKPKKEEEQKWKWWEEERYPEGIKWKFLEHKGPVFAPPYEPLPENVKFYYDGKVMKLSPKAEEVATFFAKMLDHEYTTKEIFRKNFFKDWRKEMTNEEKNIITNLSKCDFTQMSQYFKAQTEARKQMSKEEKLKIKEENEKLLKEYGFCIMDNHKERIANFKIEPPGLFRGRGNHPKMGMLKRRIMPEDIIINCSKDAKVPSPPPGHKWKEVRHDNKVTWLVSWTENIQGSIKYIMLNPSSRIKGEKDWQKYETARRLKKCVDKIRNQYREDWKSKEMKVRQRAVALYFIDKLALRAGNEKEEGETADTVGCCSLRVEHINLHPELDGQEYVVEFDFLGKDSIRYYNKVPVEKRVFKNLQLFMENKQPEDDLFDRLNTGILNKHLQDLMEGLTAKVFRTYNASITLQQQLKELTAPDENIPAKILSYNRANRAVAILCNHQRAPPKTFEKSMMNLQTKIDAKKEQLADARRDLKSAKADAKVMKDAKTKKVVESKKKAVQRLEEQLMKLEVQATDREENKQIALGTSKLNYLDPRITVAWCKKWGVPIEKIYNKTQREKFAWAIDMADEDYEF
Put plainly: Topo I inhibitory assay. In kind it is biochemical. As to the method:
(§3) The tested members were subjected to Topo I inhibitory activity evaluation using the previously reported method. While the Topo II inhibitory assay was done according to the method described by Patra et al.[55] (Supporting information).
(§4) Thus, compounds 5b and 7d in addition to their nano complexes 5b NPs and 7d NPs were evaluated for their enzyme inhibitory effects.

The next series deals with Topo II. Put plainly: Topo II inhibitory assay. The format is biochemical. On the procedure: as §3, §4
Another series concerns DNA. Put plainly: DNA intercalation assay (linear DNA formation). The format is biochemical. Particulars: even at low concentrations; gel. On the procedure: The reported procedure by Atwal et al. was our guide to test the DNA intercalating ability of our candidates[56] (Supporting information).
The ability of the designed members to intercalate onto the DNA molecules and increase the levels of Topo I–DNA as well as Topo II-DNA cleavage complexes by stabilising the enzymes–DNA covalent complexes were also assayed. Thus, the amount of linear DNA formed by compounds 5b and 7d, in addition to their nanoforms 5b NPs and 7d NPs, was measured. […] As so, the designed congeners were then considered promising DNA intercalating members (Figure 11).

The next series relates to A-549. Put plainly: MTT cytotoxicity, A-549. In kind it is cell-based. Conditions: Homo sapiens, A549, mean ± SD. As to the method:
as §1, §2

In the next series the test system is MCF7. Put plainly: MTT cytotoxicity, MCF7. In kind it is cell-based. Conditions: Homo sapiens, mean ± SD. On the procedure: as §1, §2
In the next series the test system is HCT-116. Put plainly: MTT cytotoxicity, HCT-116. The format is cell-based. Conditions: Homo sapiens, mean ± SD. As to the method:
as §1, §2

Series [1] in a line: Cytotoxic effects on normal bone marrow cells. The format is cell-based, mice. Conditions: mouse, mean ± SD. On the procedure:
as §1
The dose–response curves for the nanoform on each cell line are shown in the Supporting information, and the respective IC50s are shown in Table 3. The most promising cytotoxic samples were further investigated for their cytotoxic effects on normal mice bone marrow cells. The overall trending results were increasing the proliferation of the bone marrow cells at high concentrations of the samples, especially the 5b NPs nanoform sample, which reached up to 200% compared to the untreated cells. The dose–response curves on the bone marrow cells are represented in the Supporting information.

Converted amounts (≈) assume the structure as drawn.

Broadly, the IC50 is the concentration that inhibits the measured activity by half. A lower IC50 goes with inhibition by little substance. Usually melting point stands for the temperature, or range, at which the solid turns liquid.

As to `Cn1c2c(c(=O)[nH]c1=O)C1(C(=O)Nc3ccc([N+](=O)[O-])cc31)c1c(n(C)c(=O)[nH]c1=O)N2` [Compound 5a, 1′,9′-Dimethyl-5-nitro-1′H-spiro[indoline-3,5′-pyrido[2,3-d:6,5-d′]dipyrimidine]-2,2′,4′,6′,8′(3′H,7′H,9′H,10′H)-pentaone], the melting point is greater than 300 °C. In the series on HepG2, this compound came in with an IC50 of 563 ± 25.5 µg/mL (≈ 1280 µM). This compound had an IC50 in the series on Caco-2 of 207 ± 19.4 µg/mL (≈ 471 µM).

`CCn1c2c(c(=O)[nH]c1=O)C1(C(=O)Nc3ccc([N+](=O)[O-])cc31)c1c(n(CC)c(=O)[nH]c1=O)N2` [Compound 5b, 1′,9′-Diethyl-5-nitro-1′H-spiro[indoline-3,5′-pyrido[2,3-d:6,5-d′]dipyrimidine]-2,2′,4′,6′,8′(3′H,7′H,9′H,10′H)-pentaone]: the IC50 in the series on HepG2 turned out to be 114 ± 10.1 µg/mL (≈ 243 µM); against Topo I, 651 nM; in the series with Caco-2 it was 35.2 ± 4.1 µg/mL (≈ 75.3 µM); in the series on Topo II, 4470 nM. The “formation of linear DNA” value in the series with DNA is given as “considerable formation of linear DNA”.

As to `CCn1c2c(c(=O)[nH]c1=O)C1(C(=O)Nc3ccccc31)c1c(n(CC)c(=O)[nH]c1=O)N2` [Compound 3, 1′,9′-Diethyl-1′H-spiro[indoline-3,5′-pyrido[2,3-d:6,5-d′]dipyrimidine]-2,2′,4′,6′,8′(3′H,7′H,9′H,10′H)-pentaone], the melting point was greater than 300 °C. The compound also showed an IC50 with Caco-2 of 259 ± 9.4 µg/mL (≈ 614 µM). The compound further registered an IC50 with A-549 of 291 ± 16.4 µg/mL (≈ 689 µM).

Turning to `COc1cccc2c1C(=O)c1c(O)c3c(c(O)c1C2=O)C[C@@](O)(C(=O)CO)C[C@@H]3O[C@H]1C[C@H](N)[C@H](O)[C@H](C)O1` [Dox, doxorubicin, reference compound], the IC50 in the series with HepG2 stood at 0.3 ± 0.01 µg/mL (≈ 0.552 µM); with MCF7, 5.9 ± 0.5 µg/mL (≈ 10.9 µM); in the series on HCT-116 it was 1.1 ± 0.1 µg/mL (≈ 2.02 µM); in the series with Caco-2, 3.7 ± 0.2 µg/mL (≈ 6.81 µM); with A-549, 0.04 ± 0.003 µg/mL (≈ 0.0736 µM); in series [1] it was 0.3 ± 0.01 µg/mL (≈ 0.552 µM).

For `Cn1c2c(c(=O)[nH]c1=S)C1(C(=O)Nc3ccc(Cl)cc31)c1c(n(C)c(=S)[nH]c1=O)N2` [Compound 7c, 5-Chloro-1′,9′-dimethyl-2′,8′-dithioxo-2′,3′,8′,9′-tetrahydro-1′H-spiro[indoline-3,5′-pyrido [2,3-d:6,5-d′]dipyrimidine]-2,4′,6′(7′H,10′H)-trione], the melting point was greater than 300 °C.

In the case of `Cn1c2c(c(=O)[nH]c1=O)C1(C(=O)Nc3ccc(Cl)cc31)c1c(n(C)c(=O)[nH]c1=O)N2` [Compound 7a, 5-Chloro-1′,9′-dimethyl-1′H-spiro[indoline-3,5′-pyrido[2,3-d:6,5-d′]dipyrimidine]-2,2′,4′, 6′,8′(3′H,7′H,9′H,10′H)-pentaone], the results for the IC50 in the series on HepG2, in the series on Caco-2 and with A-549 were 120 ± 9.2 µg/mL (≈ 281 µM), 113 ± 10.4 µg/mL (≈ 263 µM) and 50.1 ± 5.9 µg/mL (≈ 117 µM), respectively.

In turn, `Cn1c2c(c(=O)[nH]c1=O)C1(C(=O)Nc3ccc(F)cc31)c1c(n(C)c(=O)[nH]c1=O)N2` [Compound 9b, 5-Fluoro-1′,9′-dimethyl-1′H-spiro[indoline-3,5′-pyrido[2,3-d:6,5-d′]dipyrimidine]-2,2′,4′,6′,8′(3′H,7′H,9′H,10′H)-pentaone] had a melting point greater than 300 °C. In addition, half-maximal inhibition in the series with HepG2 (IC50) was put at 86.4 ± 7.4 µg/mL (≈ 210 µM). Inhibition in the series on Caco-2 was half-maximal at 492 ± 40.4 µg/mL (≈ 1190 µM) (IC50). Moreover, the IC50 with A-549 was determined as 293 ± 15.4 µg/mL (≈ 710 µM).

In the case of `O=C1Nc2ccc(Cl)cc2C12c1c(n(Cc3ccccc3)c(=O)[nH]c1=O)Nc1c2c(=O)[nH]c(=O)n1Cc1ccccc1` [Compound 7d, 1′,9′-Dibenzyl-5-chloro-1′H-spiro[indoline-3,5′-pyrido[2,3-d:6,5-d′]dipyrimidine]-2,2′,4′, 6′,8′(3′H,7′H,9′H,10′H)-pentaone], the IC50 is 91.4 ± 11.3 µg/mL (≈ 157 µM) with HepG2, 419 nM on Topo I, 2660 nM in the series on Topo II and 329 ± 12.5 µg/mL (≈ 566 µM) in the series with A-549. Further, in the series with DNA, the “formation of linear DNA” value is “considerable formation of linear DNA”.

As for `O=C1Nc2ccc([N+](=O)[O-])cc2C12c1c(n(Cc3ccccc3)c(=O)[nH]c1=O)Nc1c2c(=O)[nH]c(=O)n1Cc1ccccc1` [Compound 5d, 1′,9′-Dibenzyl-5-nitro-1′H-spiro[indoline-3,5′-pyrido[2,3-d:6,5-d′]dipyrimidine]-2,2′,4′,6′,8′(3′H,7′H,9′H,10′H)-pentaone], the melting point is greater than 300 °C. The IC50 in the series on HepG2 was 422 ± 22.8 µg/mL (≈ 713 µM). In the series on Caco-2, this compound came in with an IC50 of 108 ± 10 µg/mL (≈ 183 µM). The compound further returned an IC50 in the series on A-549 of 279 ± 18.9 µg/mL (≈ 472 µM).

Turning to `CCn1c2c(c(=O)[nH]c1=O)C1(C(=O)Nc3ccc(Cl)cc31)c1c(n(CC)c(=O)[nH]c1=O)N2` [Compound 7b, 5-Chloro-1′,9′-diethyl-1′H-spiro[indoline-3,5′-pyrido[2,3-d:6,5-d′]dipyrimidine]-2,2′,4′, 6′,8′(3′H,7′H,9′H,10′H)-pentaone], the melting point was greater than 300 °C. Moreover, in the series with MCF7, the IC50 amounted to 171 ± 22.8 µg/mL (≈ 374 µM).

With `O=C1Nc2ccc(Cl)cc2C12c1c([nH]c(=O)[nH]c1=O)Nc1[nH]c(=O)[nH]c(=O)c12` [Compound 7e, 5-Chloro-1′H-spiro[indoline-3,5′-pyrido[2,3-d:6,5-d′]dipyrimidine]-2,2′,4′,6′,8′(3′H,7′H,-9′H,10′H)-pentaone], the concentration for half-maximal inhibition (IC50) in the series on HepG2 amounted to 89.7 ± 6.5 µg/mL (≈ 224 µM); with HCT-116, 435 ± 39.5 µg/mL (≈ 1080 µM); in the series on Caco-2 it was 472 ± 23.6 µg/mL (≈ 1180 µM).

In the case of `O=C1Nc2ccc([N+](=O)[O-])cc2C12c1c([nH]c(=O)[nH]c1=O)Nc1[nH]c(=O)[nH]c(=O)c12` [Compound 5e, 5-Nitro-1′H-spiro[indoline-3,5′-pyrido[2,3-d:6,5-d′]dipyrimidine]-2,2′,4′,6′,8′(3′H,7′H,9′H,10′H)-pentaone], the melting point is greater than 300 °C. This compound gave an IC50 with HepG2 of 147 ± 10.5 µg/mL (≈ 357 µM). This compound returned an IC50 with Caco-2 of 233 ± 19.2 µg/mL (≈ 566 µM).

Consider `O=c1[nH]cc(F)c(=O)[nH]1` [Compound 5-FU, 5-fluorouracil, reference compound], for which the IC50 in the series with HepG2 worked out at 103 ± 9.8 µg/mL (≈ 792 µM); in the series on MCF7, 39.3 ± 2.9 µg/mL (≈ 302 µM); in the series on HCT-116 it was 76.3 ± 6.8 µg/mL (≈ 587 µM); in the series with Caco-2, 4.4 ± 0.3 µg/mL (≈ 33.8 µM); with A-549, 1.1 ± 0.1 µg/mL (≈ 8.46 µM); in series [1], 103 ± 9.8 µg/mL (≈ 792 µM).

`Cn1c2c(c(=O)[nH]c1=S)C1(C(=O)Nc3ccc([N+](=O)[O-])cc31)c1c(n(C)c(=S)[nH]c1=O)N2` [Compound 5c, 1′,9′-Dimethyl-5-nitro-2′,8′-dithioxo-2′,3′,8′,9′-tetrahydro-1′H-spiro[indoline-3,5′-pyrido[2,3-d:6,5-d′]dipyrimidine]-2,4′,6′(7′H,10′H)-trione] yielded a melting point greater than 300 °C. The compound further returned an IC50 with HepG2 of 250 ± 19.3 µg/mL (≈ 531 µM). The compound also had an IC50 in the series with HCT-116 of 186 ± 19.4 µg/mL (≈ 394 µM). The compound also returned an IC50 in the series on Caco-2 of 247 ± 12.5 µg/mL (≈ 525 µM). The compound further had an IC50 with A-549 of 525 ± 50.6 µg/mL (≈ 1110 µM).
